Among the data in US20240208968A1, “ALPHA V BETA 6 AND ALPHA V BETA 1 INTEGRIN INHIBITORS AND USES THEREOF” (DiCE Molecules SV, Inc., priority 2021, published 2024) are IC50 values, retold here.

As a reminder, the IC50 is the concentration at which inhibition is half-maximal. Low readings indicate greater potency, high ones weaker potency.

Assay [1] has as its target αvβ1 (Homo sapiens, UniProt P05556+P06756). As to the kind of experiment: Solid Phase Integrin αvβ1 Assay. In kind it is binding. The method, then: (§1) The compounds exemplified in this document were tested for their ability to inhibit αvβ1 and αvβ6 in below described solid phase integrin assays.
Solid Phase Integrin αvβ1 Assay
96-well microtiter plates (4 HBX Immulon; Thermo Fisher Scientific, Waltham, MA) were coated with 100 μL/well of 1 μg/mL recombinant TGFb1-LAP in TBS at 4° C., overnight. The coating solution was removed, and plates were blocked with 200 μL/well of blocking and binding buffer (2% BSA/TBST, 1 mM MnCl2) at room temperature for 1 hr. Blocking buffer was removed and 50 μL of binding buffer and testing compounds were added. 50 μL of diluted αvβ1 (0.2 ug/mL in binding buffer) was added to wells (100 μL/well total) for and plates incubated for 90 min at room temperature. Wells were washed thrice with washing buffer (TBS, 0.05% Tween, 1 mM MnCl2) and plates were incubated with 100 μL/well of a 1:12500 dilution of streptavidin-horseradish peroxidase conjugate (Thermo Fisher Scientific) in binding buffer for 20 min at room temperature. Bound protein was detected using the substrate TMB. The IC50 values for testing compounds were calculated by Levenberg-Marquardt four parameter fitting logistics.

Assay [2] has as its target αvβ6 (Homo sapiens, UniProt P06756+P18564). As to the kind of experiment: Solid Phase Integrin αvβ6 Assay. It is filed as binding. How it is done:
as §1
Solid Phase Integrin αvβ6 Assay
96-well microtiter plates (4 HBX Immulon; Thermo Fisher Scientific, Waltham, MA) were coated with 100 μL/well of 1 μg/mL recombinant TGFb1-LAP in TBS at 4° C., overnight. The coating solution was removed, and plates were blocked with 200 μL/well of blocking and binding buffer (2% BSA/TBST, 1 mM MnCl2) at room temperature for 1 hr. Blocking buffer was removed and 50 uL of binding buffer and testing compounds were added. 50 μL of diluted αvβ6 (0.2 μg/mL in binding buffer) was added to wells (100 uL/well total) and plates incubated for 1 hr at room temperature. Wells were washed thrice with washing buffer (TBS, 0.05% Tween, 1 mM MnCl2) and plates were incubated with 100 μL/well of a 1:12500) dilution of streptavidin-horseradish peroxidase conjugate (Thermo Fisher Scientific) in binding buffer for 20 min at room temperature. Bound protein was detected using the substrate TMB. The IC50 values for testing compounds were calculated by Levenberg-Marquardt four parameter fitting logistics.

The structures appear in SMILES notation. Counter-ions that a name gives are not always drawn.

αvβ1, sequence (P06756 31-992 limits assumed): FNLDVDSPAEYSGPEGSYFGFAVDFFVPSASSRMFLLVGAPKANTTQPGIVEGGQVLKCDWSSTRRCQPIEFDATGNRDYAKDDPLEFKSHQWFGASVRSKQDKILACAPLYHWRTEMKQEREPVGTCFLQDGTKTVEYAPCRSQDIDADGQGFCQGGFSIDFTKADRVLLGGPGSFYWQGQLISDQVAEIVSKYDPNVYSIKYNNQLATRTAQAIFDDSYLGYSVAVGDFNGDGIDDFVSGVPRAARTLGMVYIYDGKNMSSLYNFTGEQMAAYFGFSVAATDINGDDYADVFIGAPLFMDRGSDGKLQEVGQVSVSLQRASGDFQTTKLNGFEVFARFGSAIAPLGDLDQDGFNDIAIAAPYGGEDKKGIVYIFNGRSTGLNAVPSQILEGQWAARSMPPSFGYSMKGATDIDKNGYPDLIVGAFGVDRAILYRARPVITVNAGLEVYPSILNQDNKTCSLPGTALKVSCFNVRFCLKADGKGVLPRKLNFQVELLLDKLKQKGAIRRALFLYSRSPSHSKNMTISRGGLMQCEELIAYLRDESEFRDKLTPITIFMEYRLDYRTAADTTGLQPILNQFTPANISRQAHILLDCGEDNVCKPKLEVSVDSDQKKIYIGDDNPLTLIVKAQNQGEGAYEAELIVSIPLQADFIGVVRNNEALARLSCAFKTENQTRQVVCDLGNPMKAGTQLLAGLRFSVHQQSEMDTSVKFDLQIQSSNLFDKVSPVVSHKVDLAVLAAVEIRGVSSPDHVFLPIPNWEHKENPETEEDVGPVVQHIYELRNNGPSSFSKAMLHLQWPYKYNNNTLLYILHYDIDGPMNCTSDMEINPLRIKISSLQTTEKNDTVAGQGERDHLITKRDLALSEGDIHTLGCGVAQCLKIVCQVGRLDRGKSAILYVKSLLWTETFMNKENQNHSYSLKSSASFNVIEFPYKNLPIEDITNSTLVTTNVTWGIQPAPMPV
αvβ1, sequence (P05556 21-728 limits assumed): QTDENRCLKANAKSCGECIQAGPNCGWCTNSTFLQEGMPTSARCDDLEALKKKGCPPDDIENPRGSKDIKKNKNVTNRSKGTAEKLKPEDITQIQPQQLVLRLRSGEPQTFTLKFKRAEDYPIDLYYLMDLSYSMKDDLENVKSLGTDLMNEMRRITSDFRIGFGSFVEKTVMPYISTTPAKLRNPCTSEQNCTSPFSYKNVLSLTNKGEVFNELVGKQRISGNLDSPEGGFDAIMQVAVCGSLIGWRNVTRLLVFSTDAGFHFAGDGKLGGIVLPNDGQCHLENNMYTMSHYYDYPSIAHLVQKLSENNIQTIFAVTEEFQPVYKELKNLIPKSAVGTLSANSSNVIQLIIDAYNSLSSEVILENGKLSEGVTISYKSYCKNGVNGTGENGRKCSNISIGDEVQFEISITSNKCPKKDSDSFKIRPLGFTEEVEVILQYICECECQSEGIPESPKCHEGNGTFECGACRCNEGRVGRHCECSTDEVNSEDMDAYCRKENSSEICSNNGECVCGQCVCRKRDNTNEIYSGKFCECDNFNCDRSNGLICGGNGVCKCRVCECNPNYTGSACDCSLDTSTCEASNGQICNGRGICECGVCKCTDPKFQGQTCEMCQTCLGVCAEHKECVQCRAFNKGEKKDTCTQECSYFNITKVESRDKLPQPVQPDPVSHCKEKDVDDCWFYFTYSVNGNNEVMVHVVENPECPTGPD
αvβ6, sequence (P06756 31-992 limits assumed): as the sequence (P06756 31-992 limits assumed) above
αvβ6, sequence (P18564 22-707 limits assumed): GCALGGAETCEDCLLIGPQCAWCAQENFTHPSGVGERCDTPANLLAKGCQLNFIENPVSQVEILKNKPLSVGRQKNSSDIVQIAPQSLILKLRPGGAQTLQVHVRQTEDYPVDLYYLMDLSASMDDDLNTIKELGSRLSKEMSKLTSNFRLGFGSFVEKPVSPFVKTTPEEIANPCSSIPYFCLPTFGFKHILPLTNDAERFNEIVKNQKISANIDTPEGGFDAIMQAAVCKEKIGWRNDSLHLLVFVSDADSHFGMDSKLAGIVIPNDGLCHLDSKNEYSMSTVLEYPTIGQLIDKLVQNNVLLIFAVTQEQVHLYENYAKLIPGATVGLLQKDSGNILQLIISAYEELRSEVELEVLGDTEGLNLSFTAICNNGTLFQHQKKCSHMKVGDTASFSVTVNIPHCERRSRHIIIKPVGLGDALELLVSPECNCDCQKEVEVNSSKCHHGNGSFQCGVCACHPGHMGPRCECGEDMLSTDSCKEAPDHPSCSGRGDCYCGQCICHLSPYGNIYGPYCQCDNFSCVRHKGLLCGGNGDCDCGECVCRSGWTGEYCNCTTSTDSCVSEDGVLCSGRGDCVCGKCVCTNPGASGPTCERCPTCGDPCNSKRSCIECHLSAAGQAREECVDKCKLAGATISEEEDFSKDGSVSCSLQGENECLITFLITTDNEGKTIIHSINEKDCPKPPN

Consider `O=C(O)C[C@@H](NC(=O)[C@@H]1CCCN(CCCc2ccc3c(n2)NCCC3)C1)c1ccc2c(c1)CCCC2` (single isomer, unassigned) [Compound 204-B], for which the IC50 in assay [1] and in assay [2] was less than 100 nM throughout.

In the case of `O=C(O)C[C@H](NC(=O)[C@@H]1CCCN(CCCc2ccc3c(n2)NCCC3)C1)c1cccc(N2CC3CCC2CO3)c1` (single isomer, unassigned) [Compound 241-A], the IC50 in assay [1] and in assay [2] was less than 100 nM throughout.

For the molecule `O=C(O)C[C@H](NC(=O)[C@@H]1CCCN(CCCc2ccc3c(n2)NCCC3)C1)c1cccc(N2CC3CCC2CO3)c1` (single isomer, unassigned) [Compound 241-B], the IC50 in assay [1] and in assay [2] was less than 100 nM in each case.

On to `O=C(O)C(CNC(=O)[C@@H]1CCCN(CCCc2ccc3c(n2)NCCC3)C1)c1ccc(C2CC2)cc1` (single isomer, unassigned) [Compound 259-B], for which the half-maximal inhibitory concentration (IC50) in assay [1] was less than 100 nM; in assay [2] it was 100 to 1000 nM.

As for `O=C(O)C[C@H](NC(=O)[C@@H]1CCCN(CCCc2ccc3c(n2)NCCC3)C1)c1ccc2c(c1)CCC2` [Compound 201-A, 3-(2,3-dihydro-1H-inden-5-yl)-3-((R)-1-(3-(5,6,7,8-tetrahydro-1,8-naphthyridin-2-yl)propyl)piperidine-3-carboxamido)propanoic acid hydrochloride], the concentration for half-maximal inhibition (IC50) in assay [1] was 100 to 1000 nM; in assay [2] it was less than 100 nM.

Consider `O=C(O)C[C@@H](NC(=O)[C@@H]1CCCN(CCCc2ccc3c(n2)NCCC3)C1)c1ccc2c(c1)CCC2` [Compound 201-B, 3-(2,3-dihydro-1H-inden-5-yl)-3-((R)-1-(3-(5,6,7,8-tetrahydro-1,8-naphthyridin-2-yl)propyl)piperidine-3-carboxamido)propanoic acid hydrochloride], for which the concentration for half-maximal inhibition (IC50) in assay [1] and in assay [2] was less than 100 nM each time.

As to `O=C(O)C[C@H](NC(=O)[C@@H]1CCCN(CCCc2ccc3c(n2)NCCC3)C1)c1ccccc1` [Compound 202, (S)-3-phenyl-3-((R)-1-(3-(5,6,7,8-tetrahydro-1,8-naphthyridin-2-yl)propyl)piperidine-3-carboxamido)propanoic acid hydrochloride], the IC50 in assay [1] and in assay [2] was less than 100 nM throughout.

`O=C(O)C[C@H](NC(=O)[C@@H]1CCCN(CCCc2ccc3c(n2)NCCC3)C1)c1ccc2c(c1)CCCC2` [Compound 204-A, 3-((R)-1-(3-(5,6,7,8-tetrahydro-1,8-naphthyridin-2-yl)propyl)piperidine-3-carboxamido)-3-(5,6,7,8-tetrahydronaphthalen-2-yl)propanoic acid]: the IC50 in assay [1] and in assay [2] was less than 100 nM each time.

As to `O=C(O)C[C@H](NC(=O)[C@@H]1CCCN(CCCc2ccc3c(n2)NCCC3)C1)c1cccc(Br)c1` [Compound 205, (S)-3-(3-bromophenyl)-3-((R)-1-(3-(5,6,7,8-tetrahydro-1,8-naphthyridin-2-yl)propyl)piperidine-3-carboxamido)propanoic acid hydrochloride], the concentration for half-maximal inhibition (IC50) in assay [1] and in assay [2] was less than 100 nM throughout.

With `O=C(O)C[C@@H](NC(=O)[C@@H]1CCCN(CCCc2ccc3c(n2)NCCC3)C1)c1ccc2ccccc2c1` [Compound 206, (R)-3-(naphthalen-2-yl)-3-((R)-1-(3-(5,6,7,8-tetrahydro-1,8-naphthyridin-2-yl)propyl)piperidine-3-carboxamido)propanoic acid hydrochloride], the IC50 in assay [1] and in assay [2] was less than 100 nM each time.

With `O=C(O)C[C@H](NC(=O)[C@@H]1CCCN(CCCc2ccc3c(n2)NCCC3)C1)c1ccc2ccccc2c1` [Compound 207, (S)-3-(naphthalen-2-yl)-3-((R)-1-(3-(5,6,7,8-tetrahydro-1,8-naphthyridin-2-yl)propyl)piperidine-3-carboxamido)propanoic acid hydrochloride], the concentration for half-maximal inhibition (IC50) in assay [1] and in assay [2] was 100 to 1000 nM each time.

On to `O=C(O)C[C@@H](NC(=O)[C@@H]1CCCN(CCCc2ccc3c(n2)NCCC3)C1)c1cc(F)cc(C(F)(F)F)c1` [Compound 208-A, 3-(3-fluoro-5-(trifluoromethyl)phenyl)-3-((R)-1-(3-(5,6,7,8-tetrahydro-1,8-naphthyridin-2-yl)propyl)piperidine-3-carboxamido)propanoic acid], for which the concentration for half-maximal inhibition (IC50) in assay [1] and in assay [2] was less than 100 nM throughout.

With `O=C(O)C[C@H](NC(=O)[C@@H]1CCCN(CCCc2ccc3c(n2)NCCC3)C1)c1cc(F)cc(C(F)(F)F)c1` [Compound 208-B, 3-(3-fluoro-5-(trifluoromethyl)phenyl)-3-((R)-1-(3-(5,6,7,8-tetrahydro-1,8-naphthyridin-2-yl)propyl)piperidine-3-carboxamido)propanoic acid], the concentration for half-maximal inhibition (IC50) is more than 1000 nM in assay [1] and 100 to 1000 nM in assay [2].

Turning to `O=C(O)C[C@H](NC(=O)[C@@H]1CCCN(CCCc2ccc3c(n2)NCCC3)C1)c1cccc(Oc2ccccc2)c1` [Compound 209-A, 3-(3-phenoxyphenyl)-3-((R)-1-(3-(5,6,7,8-tetrahydro-1,8-naphthyridin-2-yl)propyl)piperidine-3-carboxamido)propanoic acid], the concentration for half-maximal inhibition (IC50) in assay [1] and in assay [2] was less than 100 nM throughout.

Consider `O=C(O)C[C@@H](NC(=O)[C@@H]1CCCN(CCCc2ccc3c(n2)NCCC3)C1)c1cccc(Oc2ccccc2)c1` [Compound 209-B, 3-(3-phenoxyphenyl)-3-((R)-1-(3-(5,6,7,8-tetrahydro-1,8-naphthyridin-2-yl)propyl)piperidine-3-carboxamido)propanoic acid], for which the results for the IC50 in assay [1] and in assay [2] were more than 1000 nM and 100 to 1000 nM, respectively.

For `COc1ccc(C(C)C)c(C(CC(=O)O)NC(=O)[C@@H]2CCCN(CCCc3ccc4c(n3)NCCC4)C2)c1` (stereo partly drawn) [Compound 210, 3-(2-isopropyl-5-methoxyphenyl)-3-((R)-1-(3-(5,6,7,8-tetrahydro-1,8-naphthyridin-2-yl)propyl)piperidine-3-carboxamido)propanoic acid hydrochloride], the half-inhibitory concentration (IC50) in assay [1] and in assay [2] was 100 to 1000 nM in each case.

Turning to `O=C(O)C[C@H](NC(=O)[C@@H]1CCCN(CCCc2ccc3c(n2)NCCC3)C1)c1cccc2c1CCC2` [Compound 211-A, 3-(2,3-dihydro-1H-inden-4-yl)-3-((R)-1-(3-(5,6,7,8-tetrahydro-1,8-naphthyridin-2-yl)propyl)piperidine-3-carboxamido)propanoic acid], the IC50 in assay [1] and in assay [2] was less than 100 nM in each case.

Regarding `O=C(O)C[C@@H](NC(=O)[C@@H]1CCCN(CCCc2ccc3c(n2)NCCC3)C1)c1cccc2c1CCC2` [Compound 211-B, 3-(2,3-dihydro-1H-inden-4-yl)-3-((R)-1-(3-(5,6,7,8-tetrahydro-1,8-naphthyridin-2-yl)propyl)piperidine-3-carboxamido)propanoic acid], the values for the IC50 in assay [1] and in assay [2] were more than 1000 nM and 100 to 1000 nM, respectively.

As for `O=C(O)C[C@H](NC(=O)[C@@H]1CCCN(CCCc2ccc3c(n2)NCCC3)C1)c1cccc2c1CCCC2` [Compound 212-A, 3-((R)-1-(3-(5,6,7,8-tetrahydro-1,8-naphthyridin-2-yl)propyl)piperidine-3-carboxamido)-3-(5,6,7,8-tetrahydronaphthalen-1-yl)propanoic acid], the IC50 in assay [1] and in assay [2] was more than 1000 nM throughout.

For the molecule `O=C(O)C[C@@H](NC(=O)[C@@H]1CCCN(CCCc2ccc3c(n2)NCCC3)C1)c1cccc2c1CCCC2` [Compound 212-B, 3-((R)-1-(3-(5,6,7,8-tetrahydro-1,8-naphthyridin-2-yl)propyl)piperidine-3-carboxamido)-3-(5,6,7,8-tetrahydronaphthalen-1-yl)propanoic acid], the IC50 was 100 to 1000 nM in assay [1] and less than 100 nM in assay [2].

For the molecule `O=C(O)CC(NC(=O)[C@@H]1CCCN(CCCc2ccc3c(n2)NCCC3)C1)c1ccc2c(c1)CCO2` (stereo partly drawn) [Compound 213, 3-(2,3-dihydrobenzofuran-5-yl)-3-((R)-1-(3-(5,6,7,8-tetrahydro-1,8-naphthyridin-2-yl)propyl)piperidine-3-carboxamido)propanoic acid hydrochloride], the IC50 in assay [1] and in assay [2] was less than 100 nM throughout.

For the molecule `O=C(O)C[C@H](NC(=O)[C@@H]1CCCN(CCCc2ccc3c(n2)NCCC3)C1)c1ccc2c(c1)OCO2` [Compound 214, (S)-3-(benzo[d][1,3]dioxol-5-yl)-3-((R)-1-(3-(5,6,7,8-tetrahydro-1,8-naphthyridin-2-yl)propyl)piperidine-3-carboxamido)propanoic acid], the half-maximal inhibitory concentration (IC50) in assay [1] and in assay [2] was less than 100 nM each time.
